Test results from US10329317B2, “Quinoline derivative for use in the treatment and prevention of viral infections” (ABIVAX, priority 2015, dated 2019).

Key:
[1] = target: T1, Recombinant human CBC with capped RNA substrate (Homo sapiens, UniProt P52298+Q09161); assay: Gel-mobility shift assay of CBC binding to capped RNA; settings: Compound 1 5-100 μM, Compound 2 5-50 μM, m7GpppG 12 mM
T1 construct: made in house
T1 sequence (Q09161 20-790 limits assumed): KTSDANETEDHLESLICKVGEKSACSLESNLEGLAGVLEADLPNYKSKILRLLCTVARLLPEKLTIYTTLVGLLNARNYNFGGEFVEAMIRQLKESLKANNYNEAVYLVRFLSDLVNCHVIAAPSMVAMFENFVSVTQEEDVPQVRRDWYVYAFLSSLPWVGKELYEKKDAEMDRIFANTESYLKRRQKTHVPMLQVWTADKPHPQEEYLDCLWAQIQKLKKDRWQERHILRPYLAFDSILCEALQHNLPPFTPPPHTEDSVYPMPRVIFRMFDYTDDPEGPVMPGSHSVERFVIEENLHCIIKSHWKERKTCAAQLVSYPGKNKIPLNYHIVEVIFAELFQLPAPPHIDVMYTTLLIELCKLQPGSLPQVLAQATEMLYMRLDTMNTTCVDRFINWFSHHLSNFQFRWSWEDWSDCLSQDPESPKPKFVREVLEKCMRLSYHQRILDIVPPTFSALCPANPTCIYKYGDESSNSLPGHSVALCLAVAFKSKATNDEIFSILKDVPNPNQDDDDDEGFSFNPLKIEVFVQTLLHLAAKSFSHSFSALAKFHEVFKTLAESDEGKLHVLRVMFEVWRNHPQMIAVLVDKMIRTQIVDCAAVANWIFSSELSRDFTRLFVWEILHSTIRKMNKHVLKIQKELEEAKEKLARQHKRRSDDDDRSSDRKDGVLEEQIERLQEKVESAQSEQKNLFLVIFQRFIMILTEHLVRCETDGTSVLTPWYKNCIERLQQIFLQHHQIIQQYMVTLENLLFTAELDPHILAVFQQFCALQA
T1 sequence (P52298 1-156): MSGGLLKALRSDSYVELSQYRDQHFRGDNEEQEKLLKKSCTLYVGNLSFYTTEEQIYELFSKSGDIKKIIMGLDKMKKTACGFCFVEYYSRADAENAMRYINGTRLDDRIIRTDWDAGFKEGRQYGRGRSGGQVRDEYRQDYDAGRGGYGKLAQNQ
Procedure: FIG. 1B. […] Recombinant human CBC was incubated with a capped RNA substrate and analyzed by native gel electrophoresis in order to resolve the different RNA and RNA-protein complexes: free RNA (lane 1), and CBC-RNA complexes (lanes 2-10) in the presence of 12 mM of m7GppG (lanes 10) or 5 μM, 10 μM or 50 μM of Compound 2 (lanes 2-5, respectively) and 5 μM, 10 μM, 50 μM or 100 μM of Compound 1 (lanes 6-9, respectively).
Recombinant human CBC was incubated with a capped RNA substrate in the presence of increasing concentrations of compound 1 or compound 2 or a m(7)GpppG cap analogue and analyzed by native gel electrophoresis in order to resolve the different RNA and RNA-protein complexes according to Mazza et al. (Large-scale induced fit recognition of an m(7)GpppG cap analogue by the human nuclear cap-binding complex. EMBO J. 21, 5548-5557 (2002).

[2] = target: T2, CBC complex (CBP20 and CBP80) (Homo sapiens, UniProt P52298+Q09161); assay: UV-induced covalent bridging of purified recombinant CBP20 and CBP80 (SDS-PAGE / Western blot); assay type: binding; settings: purified recombinant CBP20 and CBP80, UV light, resolved by SDS-PAGE
T2 construct: made in house
T2 sequence (Q09161 20-790 limits assumed): T1 sequence (Q09161 20-790 limits assumed)
T2 sequence (P52298 1-156): T1 sequence (P52298 1-156)
Procedure: FIG. 1A. Compounds 1 and 2 interact with the CBC complex. Purified recombinant CBP20 and CBP80 proteins were incubated with increasing concentrations of Compound 2 (left panel) or Compound 1 (right panel, Gluc) and treated during 30 min (Compound 1) or 15 min (Compound 2) with UV light. […] Left panel: from left to right, incubation with 0.1 (lane 1), 1 (lane 2), 10 (lane 3) and 50 μM (lane 4) […]. Right panel: from left to right, incubation with 1 (lane 1), 10 (lane 2), 50 (lane 3), 100 μM (lane 4) and 200 μM (lane 5) of Compound 1.
The recombinant CBC complex, comprising CBP20 and CBP80, is prepared according to the protocol which has been described in Worch, R. et al. (Specificity of recognition of mRNA 5′ cap by human nuclear cap-binding complex. RNA 11, 1355-1363 (2005)).
Compound 1 can make covalent binding with purified CBC complex after […] irradiation with UV light at 365 nm.
The same results were obtained with the glucuronidated Compound 1, the more soluble derivative of Compound 2 that is produced as metabolite using human hepatocytes.

competition of the complex between CBC and capped RNA [1]	covalent bridging between CBP20 and CBP80 after UV irradiation [2]	Structure (SMILES)
competed	–	Cn1c[n+]([C@@H]2O[C@H](COP(=O)(O)OP(=O)([O-])OP(=O)(O)OC[C@H]3O[C@@H](n4cnc5c(=O)[nH]c(N)nc54)[C@H](O)[C@@H]3O)[C@@H](O)[C@H]2O)c2nc(N)[nH]c(=O)c21 [m^7GpppG, reference compound]
no competition	dose-dependent covalent bridging	FC(F)(F)Oc1ccc(Nc2ccc3cccc(Cl)c3n2)cc1 [Compound 2, 8-chloro-N-(4-(trifluoromethoxy)phenyl)quinolin-2-amine]
